Experimental findings from patent publication US10689399B2, “Substituted 3,4,5,6,8,10,14,14a-octahydro-2h-2,6-methanopyrido[1′,2′:4,5]pyrazino[2,1-b][1,3]oxazocines and methods for treating viral infections” (Gilead Sciences, Inc., priority 2012, dated 2020) are described below.

One test has as its system HIV-IIIb. Briefly: Antiviral assay in MT4 cells. It counts as cell-based. The following applies: Human immunodeficiency virus 1, IIIB, MT4, 120 h, MT4 cells infected with HIV-IIIb, 5 days, CellTiter-Glo; read-out: EC50 nM in MT-4. A digest of the protocol: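 MT4 cells pre-infected with HIV-IIIb (0.004 m.o.i.) at 37 °C, or mock-infected, then seeded at 2000 cells/well onto 3-fold serially diluted compound (10 concentrations, quadruplicate) in RPMI 1640 with 10% FBS. After 5 days at 37 °C, cell viability read by CellTiter-Glo luminescence.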
`O=C(NCc1ccccc1F)c1cn2c(c(O)c1=O)C(=O)N1[C@@H]3CC[C@@H](C3)O[C@H]1C2` [Compound 23, (2 S,5R,13aS)—N-(2-fluorobenzyl)-8-hydroxy-7,9-dioxo-2,3,4,5,7,9,13,13a-octahydro-2,5-methanopyrido[1′,2′:4,5]pyrazino[2,1-b][1,3]oxazepine-10-carboxamide]: the EC50 (in general, the concentration that produces a half-maximal response) turned out to be 2.3 nM.

Turning to `O=C(NC1(c2ccc(F)cc2F)CC1)c1cn2c(c(O)c1=O)C(=O)N1C(C2)O[C@H]2CC[C@@H]1C2` (stereo partly drawn) [Compound 27, (2 S,5R)—N-(1-(2,4-difluorophenyl)cyclopropyl)-8-hydroxy-7,9-dioxo-2,3,4,5,7,9,13,13a-octahydro-2,5-methanopyrido[1′,2′:4,5]pyrazino[2,1-b][1,3]oxazepine-10-carboxamide], the 50% effective concentration (EC50) came to 4.4 nM.

For the compound `C[C@@H](NC(=O)c1cn2c(c(O)c1=O)C(=O)N1[C@H]3CC[C@H](C3)[C@@H]1C2)c1c(F)cc(F)cc1F` [Compound 77, (1R,4 S,12aR)-7-hydroxy-6,8-dioxo-N—((R)-1-(2,4,6-trifluorophenyl)ethyl)-1,2,3,4,6,8,12,12a-octahydro-1,4-methanodipyrido[1,2-a:1′,2′-d]pyrazine-9-carboxamide], the EC50 is 5.6 nM.

For `O=C(NC1(c2ccc(F)cc2F)CC1)c1cn2c(c(O)c1=O)C(=O)N1C(C2)O[C@@H]2CCC[C@H]1C2` (stereo partly drawn) [Compound 29, (2R,6S)—N-(1-(2,4-difluorophenyl)cyclopropyl)-9-hydroxy-8,10-dioxo-3,4,5,6,8,10,14,14a-octahydro-2H-2,6-methanopyrido[1′,2′:4,5]pyrazino[2,1-b][1,3]oxazocine-11-carboxamide], the half-maximal effective concentration (EC50) came out at 13.9 nM.

Turning to `O=C(NC1(c2ccc(F)cc2F)CCC1)c1cn2c(c(O)c1=O)C(=O)N1C(C2)O[C@H]2CC[C@@H]1C2` (stereo partly drawn) [Compound 32, (2S,5R)—N-(1-(2,4-difluorophenyl)cyclobutyl)-8-hydroxy-7,9-dioxo-2,3,4,5,7,9,13,13a-octahydro-2,5-methanopyrido[1′,2′: 4,5]pyrazino[2,1-b][1,3]oxazepine-10-carboxamide], the EC50 is 14 nM.

Regarding `O=C(NCc1cccc(Cl)c1F)c1cn2c(c(O)c1=O)C(=O)N1[C@H]3CC[C@H](C3)[C@@H]1C2` [Compound 90, (1R,4S,12aR)—N-(3-chloro-2-fluorobenzyl)-7-hydroxy-6,8-dioxo-1,2,3,4,6,8,12,12a-octahydro-1,4-methanodipyrido[1,2-a:1′,2′-d]pyrazine-9-carboxamide], the EC50 came out at 5.7 nM.

As for `C[C@H](NC(=O)c1cn2c(c(O)c1=O)C(=O)N1[C@@H]3CC[C@@H](C3)O[C@H]1C2)c1ccc(F)cc1F` [Compound 13, (2S,5R,13aS)—N—((S)-1-(2,4-difluorophenyl)ethyl)-8-hydroxy-7,9-dioxo-2,3,4,5,7,9,13,13a-octahydro-2,5-methanopyrido[1%2′: 4,5]pyrazino[2,1-b][1,3]oxazepine-10-carboxamide], the EC50 is 46 nM.

In the case of `C[C@@H](NC(=O)c1cn2c(c(O)c1=O)C(=O)N1[C@H]3CC[C@H](C3)O[C@@H]1C2)c1ccc(F)cc1F` [Compound 12, (2R,5S,13aR)—N—((R)-1-(2,4-difluorophenyl)ethyl)-8-hydroxy-7,9-dioxo-2,3,4,5,7,9,13,13a-octahydro-2,5-methanopyrido[1′,2′:4,5]pyrazino[2,1-b][1,3]oxazepine-10-carboxamide], the EC50 was determined as 5.9 nM.

Take `O=C(NCc1ccc(F)c(F)c1F)c1cn2c(c(O)c1=O)C(=O)N1[C@H]3CC[C@H](C3)[C@@H]1C2` [Compound 91, (1R,4S,12aR)-7-hydroxy-6,8-dioxo-N-(2,3,4-trifluorobenzyl)-1,2,3,4,6,8,12,12a-octahydro-1,4-methanodipyrido[1,2-a:1′,2′-d]pyrazine-9-carboxamide]: the concentration for a half-maximal effect (EC50) worked out at 5 nM.

`C[C@@H]1CCO[C@H]2Cn3cc(C(=O)NC4(c5ccc(F)cc5F)CC4)c(=O)c(O)c3C(=O)N12` [Compound 5, (4R,12aS)—N-(1-(2,4-difluorophenyl)cyclopropyl)-7-hydroxy-4-methyl-6,8-dioxo-3,4,6,8,12,12a-hexahydro-2H-[1,3]oxazino[3,2-d]pyrido[1,2-a]pyrazine-9-carboxamide]: the concentration giving a half-maximal response (EC50) worked out at 8.1 nM.

Turning to `Cc1cccc(CNC(=O)c2cn3c(c(O)c2=O)C(=O)N2[C@H]4CC[C@H](C4)[C@@H]2C3)c1F` [Compound 70, (1R,4S,12aR)—N-(2-fluoro-3-methylbenzyl)-7-hydroxy-6,8-dioxo-1,2,3,4,6,8,12,12a-octahydro-1,4-methanodipyrido[1,2-a:1′,2′-d]pyrazine-9-carboxamide], the EC50 was 5.1 nM.

Consider `O=C(NCc1cccc(C(F)(F)F)c1F)c1cn2c(c(O)c1=O)C(=O)N1[C@H]3CC[C@H](C3)[C@@H]1C2` [Compound 74, (1R,4S,12aR)—N-(2-fluoro-3-(trifluoromethyl)benzyl)-7-hydroxy-6,8-dioxo-1,2,3,4,6,8,12,12a-octahydro-1,4-methanodipyrido[1,2-a:1′,2′-d]pyrazine-9-carboxamide], for which the EC50 amounted to 29.3 nM.

Take `O=C(NCc1ccc(F)c(F)c1F)c1cn2c(c(O)c1=O)C(=O)N1[C@@H]3CC[C@@H](C3)O[C@H]1C2` [Compound 44, (13aS)-8-hydroxy-7,9-dioxo-N-(2,3,4-trifluorobenzyl)-2,3,4,5,7,9,13,13a-octahydro-2,5-methanopyrido[1′,2′:4,5]pyrazino[2,1-b][1,3]oxazepine-10-carboxamide]: the EC50 was 2.3 nM.

Take `O=C(NCc1c(F)cc(F)cc1F)c1cn2c(c(O)c1=O)C(=O)N1[C@@H](C2)[C@H]2C[C@@H]1C(F)(F)C2` [Compound 98, (1S,4R,12aR)-3,3-difluoro-7-hydroxy-6,8-dioxo-N-(2,4,6-trifluorobenzyl)-1,2,3,4,6,8,12,12a-octahydro-1,4-methanodipyrido[1,2-a:1′,2′-d]pyrazine-9-carboxamide]: the EC50 was found to be 2.4 nM.

For `O=C(NC1(c2ccc(F)cc2F)CCOCC1)c1cn2c(c(O)c1=O)C(=O)N1C(C2)O[C@H]2CC[C@@H]1C2` (stereo partly drawn) [Compound 35, (2S,5R)—N-(4-(2,4-difluorophenyl)tetrahydro-2H-pyran-4-yl)-8-hydroxy-7,9-dioxo-2,3,4,5,7,9,13,13a-octahydro-2,5-methanopyrido[1′,2′:4,5]pyrazino[2,1-b][1,3]oxazepine-10-carboxamide], the EC50 was 157 nM.

As for `C[C@H]1C[C@@H]2C[C@H]1N1C(=O)c3c(O)c(=O)c(C(=O)NCc4c(F)cc(F)cc4F)cn3C[C@@H]21` [Compound 99, (1R,3S,4R,12aR)-7-hydroxy-3-methyl-6,8-dioxo-N-(2,4,6-trifluorobenzyl)-1,2,3,4,6,8,12,12a-octahydro-1,4-methanodipyrido[1,2-a:1′,2′-d]pyrazine-9-carboxamide], the EC50 amounted to 2 nM.

As to `O=C(NCc1cc(F)c(F)cc1F)c1cn2c(c(O)c1=O)C(=O)N1[C@H]3CC[C@H](C3)[C@@H]1C2` [Compound 79, (1R,4S,12aR)-7-hydroxy-6,8-dioxo-N-(2,4,5-trifluorobenzyl)-1,2,3,4,6,8,12,12a-octahydro-1,4-methanodipyrido[1,2-a:1′,2′-d]pyrazine-9-carboxamide], the EC50 came to 3.4 nM.

`C[C@H]1C[C@@H]2C[C@H]1N1C(=O)c3c(O)c(=O)c(C(=O)NCc4c(F)cc(F)cc4F)cn3C[C@H]21` [Compound 86, (1R,3S,4R,12aS)-7-hydroxy-3-methyl-6,8-dioxo-N-(2,4,6-trifluorobenzyl)-1,2,3,4,6,8,12,12a-octahydro-1,4-methanodipyrido[1,2-a:1′,2′-d]pyrazine-9-carboxamide]: the EC50 came out at 2.3 nM.

Turning to `O=C(NCc1c(F)cc(F)cc1F)c1cn2c(c(O)c1=O)C(=O)N1[C@@H]3CC[C@@H](C3)O[C@H]1C2` [Compound 45, (13aS)-8-hydroxy-7,9-dioxo-N-(2,4,6-trifluorobenzyl)-2,3,4,5,7,9,13,13a-octahydro-2,5-methanopyrido[1′,2′:4,5]pyrazino[2,1-b][1,3]oxazepine-10-carboxamide], the concentration for a half-maximal effect (EC50) was determined as 2.4 nM.

Regarding `O=C(N[C@@H](c1ccc(F)cc1F)C(F)(F)F)c1cn2c(c(O)c1=O)C(=O)N1C(C2)O[C@@H]2CC[C@H]1C2` (stereo partly drawn) [Compound 54, (2R,5S)—N—((S)-1-(2,4-difluorophenyl)-2,2,2-trifluoroethyl)-8-hydroxy-7,9-dioxo-2,3,4,5,7,9,13,13a-octahydro-2,5-methanopyrido[1′,2′:4,5]pyrazino[2,1-b][1,3]oxazepine-10-carboxamide], the 50% effective concentration (EC50) was 15.6 nM.

The test is the same for the next values; noted with them: Human immunodeficiency virus 1, IIIB, MT4, 120 h, read-out: EC50 nM in MT-4, MT4 cells infected with HIV-IIIb, 5 days, CellTiter-Glo.
Regarding `O=C(NC1(c2ccc(F)cc2F)CCCCC1)c1cn2c(c(O)c1=O)C(=O)N1C(C2)O[C@H]2CC[C@@H]1C2` (stereo partly drawn) [Compound 34, (2S,5R)—N-(1-(2,4-difluorophenyl)cyclohexyl)-8-hydroxy-7,9-dioxo-2,3,4,5,7,9,13,13a-octahydro-2,5-methanopyrido[1′,2′: 4,5]pyrazino[2,1-b][1,3]oxazepine-10-carboxamide], the EC50 was 422 nM.

Consider `O=C(NCc1ccc(F)cc1F)c1cn2c(c(O)c1=O)C(=O)N1C(C2)[C@H]2CC[C@@H]1C2` (stereo in doubt) [Compound 38, (1S,4R,12aR)—N-(2,4-difluorobenzyl)-7-hydroxy-6,8-dioxo-1,2,3,4,6,8,12,12a-octahydro-1,4-methanodipyrido[1,2-a:1′,2′-d]pyrazine-9-carboxamide], for which the EC50 came out at 1.7 nM.

Turning to `O=C(NCc1ccc(F)cc1F)c1cn2c(c(O)c1=O)C(=O)N1C(C2)[C@H]2CC[C@@H]1C2` (stereo in doubt) [Compound 48, (1S,4R,12aS)—N-(2,4-difluorobenzyl)-7-hydroxy-6,8-dioxo-1,2,3,4,6,8,12,12a-octahydro-1,4-methanodipyrido[1,2-a:1′,2′-d]pyrazine-9-carboxamide], the EC50 was 2.7 nM.
